From patent US20090202428A1, “Use of Dtbz for Imaging Endocrine Pancreas and Beta Cell Mass In Type 1 Diabetes” (priority 2005, published 2009)

Columns and labels:
[1] = molecular target: T1, VMAT2 expressed by β-cells of the endocrine pancreas (Rattus norvegicus, UniProt Q01827); assay: PET imaging with [11C]DTBZ of normal and STZ induced diabetic Lewis rats; assay type: in vivo
T1 construct: The inventors next targeted VMAT2 expressed by β-cells of the endocrine pancreas with [11C]; DTBZ; from tissue; host or cells: pancreas (beta cells of the islets) of living Lewis rats, normal and STZ-induced diabetic
T1 sequence (Q01827 whole entry): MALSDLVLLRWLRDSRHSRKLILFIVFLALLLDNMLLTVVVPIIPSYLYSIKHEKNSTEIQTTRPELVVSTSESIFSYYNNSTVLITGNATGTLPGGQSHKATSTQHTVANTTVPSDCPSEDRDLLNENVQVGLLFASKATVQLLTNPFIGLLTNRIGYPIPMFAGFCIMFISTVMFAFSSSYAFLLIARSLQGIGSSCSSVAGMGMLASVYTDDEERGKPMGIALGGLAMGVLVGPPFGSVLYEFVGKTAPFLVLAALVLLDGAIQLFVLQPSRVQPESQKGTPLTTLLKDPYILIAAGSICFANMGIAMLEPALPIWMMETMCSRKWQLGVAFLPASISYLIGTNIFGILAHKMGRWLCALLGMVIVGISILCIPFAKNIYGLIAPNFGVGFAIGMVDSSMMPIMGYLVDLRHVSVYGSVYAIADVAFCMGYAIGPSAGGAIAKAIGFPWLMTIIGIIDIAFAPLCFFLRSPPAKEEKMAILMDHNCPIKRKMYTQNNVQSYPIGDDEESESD
Description: Specific activities of carbon-11 labeled radiotracers were >2000 mCi/μmol at the time of injection.
STZ solution was prepared fresh by dissolving it in 0.1 M citrate buffer (pH 5.5) and terminally sterile filtered. Age and weight-matched control rats were injected with citrate buffer alone.
PET scans were performed on four normal and three diabetic adult rat subjects. Prior to imaging, the animals were anesthetized with intraperitoneal injections of ketamine and xylazine. After a whole-body transmission scan had been obtained (used to perform attenuation correction of the emission data), the radioligand was taken up in a sterile saline vehicle and 200-300 μCi of [11C] DTBZ was administered in a bolus injection via the penile vein. PET scans of the animals were acquired dynamically to 60 min postinjection on a Concorde microPET-R4 (CTI Molecular Imaging, Knoxville, Tenn., USA). The scanner provided a 100×80 mm field of view with a reconstructed resolution of 2.25 mm in the central 40 mm of the field of view. PET data were processed using attenuation correction matrix obtained by transmission scans and images were reconstructed using Fourier re-binning, followed by two-dimensional, filtered back projection. […]

VMAT2 = details: previous studies (Scherman et al.); cited from earlier work
[2] = test system: islet membranes (purified human islets); assay: binding of [3H]DTBZ to total membrane fractions from purified human islets
Description: (§1) Previous studies, at both protein and nucleic acid levels, have shown the underlying physiochemical basis for this functional similarity (Atouf, et al, 1997, Expression of neuronal traits in pancreatic beta cells. Implication of neuron-restrictive silencing factor/repressor element silencing transcription factor, a neuron-restrictive silencer, J Biol Chem 272:1929-1934, Bernal-Mizrachi, et al, 2003, Gene expression profiling in islet biology and diabetes research, Diabetes Metab Res Rev 19:32-42, and […] al, 1996, Differentiation and growth of pancreatic beta cells, Diabetes Metab 22:223-228). The inventors own gene expression mapping studies led them to focus on one such shared gene product, VMAT2, vesicular monoamine transporter type 2, expressed by β-cells, but absent from the exocrine pancreas and a variety of-the other abdominal organs ([…], et al, 2004, Identification of tissue-restricted transcripts in human islets, Endocrinology 145:4513-4521). A specific ligand for VMAT2, dihydrotetrabenazine (DTBZ) is already in clinical use for positron emission tomography (PET) imaging of central nervous system disorders (Vander Borght, et al, 1995, In vivo imaging of the brain vesicular monoamine transporter, J Nucl Med 36:2252-2260). The inventors studied the binding of [3H]DTBZ to total membranes fractions prepared from purified human islets and purified exocrine pancreas tissue.

[3] = test system: membranes from the exocrine pancreas; assay: binding of [3H]DTBZ to total membrane fractions from purified exocrine pancreas tissue; design: species or system human
Description: as §1

endocrine pancreas = assay: serial PET imaging with [11C]DTBZ in the spontaneously diabetic BB-DP rat model; assay type: in vivo; details: series of ten BB-DP rats, compared with IPGTT
Description: Blood samples were collected from the rat tail vein. The blood glucose (BG) levels of the rats were monitored daily using an Accu-Check blood glucose monitoring system (Roche Diagnostics, Somerville, N.J.). […] After baseline BG measurements, animals received an intraperitoneal injection of 1 g glucose/kg body wt. BG concentrations were measured again 5, 10, 15, 30, 60, and 120 min later. Animals were considered diabetic when four consecutive BG values were above 300 mg/dL and had abnormal IPGTT responses. Animals were imaged at baseline before the development of diabetes at day 45.
PET scans were performed serially on the study subject at approximately day 50 and then every two weeks until the animals developed stable diabetes. Prior to imaging, the animals were anesthetized with intrapertioneal injections of ketamine and xylazine. After a whole-body transmission scan had been obtained (used to perform attenuation correction of the emission data), the radioligand was taken up in a sterile saline vehicle and 200-300 μCi of [11C] DTBZ was administered in a bolus injection via the penile vein. PET scans of the animals were acquired dynamically to 60 min post injection on a Concorde microPET-R4 (CTI Molecular Imaging, Knoxville, Tenn., USA). The scanner provided a 100×80 mm field of view with a reconstructed resolution of 2.25 mm in the central 40 mm of the field of view. […]

## COc1cc2c(cc1OC)[C@H]1C[C@@H](O)[C@H](CC(C)C)CN1CC2 [DTBZ, dihydrotetrabenazine]
[1]; normal rat pancreata, PET
  DTBZ uptake in gastric and splenic regions of the pancreas compared to the head of the organ: higher
[1]; normal rat, 60 min imaging period, from 1 minute
  time post-injection up to which pancreatic DTBZ uptake increased monotonically: about 50 minutes
VMAT2
  target specificity of DTBZ: specifically targets VMAT2

## COc1cc2c(cc1OC)[C@H]1C[C@@H](O)[C@H](CC(C)C)CN1CC2 [[3H]DTBZ]
[2]
  binding of [3H]DTBZ to islet membranes: specifically bound
[3]
  binding of [3H]DTBZ to membranes from the exocrine pancreas: not

## COc1cc2c(cc1O[11CH3])CCN1CC(CC(C)C)C(O)CC21 (stereo not drawn) [[11C]DTBZ, [11C] dihydrotetrabenazine]
Endocrine pancreas
  reduction of [11C]DTBZ uptake that resulted in signs of glucose intolerance and hyperglycemia: approximately 50%
